For eight molecules, IC50 results are on record in US12319672B2, “Alpha-D-galactopyranoside derivatives” (Idorsia Pharmaceuticals Ltd, priority 2019, dated 2025).

The structures appear in SMILES notation.

One experiment addresses human Gal-3 (hGal-3) (Homo sapiens (Human), UniProt P17931). Kind of experiment: Competitive binding assay: binding of biotinylated hGal-3 to microplate-adsorbed asialofetuin (ASF). To be noted: Activity on hGal-3; mean values of several measurements. The gist of the method: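 For hGal-1, a variant with all six cysteines replaced by serines is preferred. Either galectin, biotinylated at 300-1000 ng/mL, competes with compound for microplate-bound ASF over 3 h at 4° C; peroxidase/ABTS detection gives IC50, averaged.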

Another experiment has as its target human Gal-1 (hGal-1). Kind of experiment: Competitive binding assay: binding of biotinylated hGal-1 to microplate-adsorbed asialofetuin (ASF). To be noted: Activities on hGal-1; mean values of several measurements. The gist of the method:
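Spectrophotometric readout (streptavidin-peroxidase, ABTS) of biotinylated galectin retained on ASF-coated wells. Biotinylated hGal-1 or hGal-3, 300-1000 ng/mL, co-incubated with test compound 3 h at 4° C, then washed. Mean IC50 from repeat runs.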

Sequence of human Gal-3 (hGal-3) (P17931 whole entry): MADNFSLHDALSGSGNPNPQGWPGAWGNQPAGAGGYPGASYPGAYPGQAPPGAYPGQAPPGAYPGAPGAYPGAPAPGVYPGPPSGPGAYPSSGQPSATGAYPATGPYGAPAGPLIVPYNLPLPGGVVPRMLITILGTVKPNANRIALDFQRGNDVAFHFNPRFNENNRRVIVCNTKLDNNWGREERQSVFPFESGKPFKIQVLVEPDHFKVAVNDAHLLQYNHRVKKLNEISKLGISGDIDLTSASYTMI
Sequence of human Gal-1 (hGal-1) (P09382 2-135 limits assumed): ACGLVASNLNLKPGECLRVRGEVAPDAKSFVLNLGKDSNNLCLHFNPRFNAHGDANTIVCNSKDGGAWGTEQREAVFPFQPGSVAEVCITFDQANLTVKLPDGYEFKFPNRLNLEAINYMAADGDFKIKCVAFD

For `CO[C@@H]1[C@@H](n2cc(-c3cc(F)cc(F)c3)nn2)[C@@H](O)[C@@H](CO)O[C@@H]1Cc1cn(C2CCN(C(=O)OCc3ccccc3)CC2)nn1` [Example 4.37, benzyl 4-(4-(((2R,3R,4S,5R,6R)-4-(4-(3,5-difluorophenyl)-1H-1,2,3-triazol-1-yl)-5-hydroxy-6-(hydroxymethyl)-3-methoxytetrahydro-2H-pyran-2-yl)methyl)-1H-1,2,3-triazol-1-yl)piperidine-1-carboxylate], the IC50 (as a rule, the concentration that inhibits the measured activity by half) on human Gal-3 (hGal-3) was 15 nM; at human Gal-1 (hGal-1), 170 nM.

In the case of `CO[C@@H]1[C@@H](n2cc(-c3cc(F)c(F)c(F)c3)nn2)[C@@H](O)[C@@H](CO)O[C@@H]1Cn1cc(C(C)(C)C)nn1` [Example 4.38, (2R,3R,4S,5R,6R)-6-((4-(tert-butyl)-1H-1,2,3-triazol-1-yl)methyl)-2-(hydroxymethyl)-5-methoxy-4-(4-(3,4,5-trifluorophenyl)-1H-1,2,3-triazol-1-yl)tetrahydro-2H-pyran-3-ol], the IC50 at human Gal-3 (hGal-3) is 93 nM; on human Gal-1 (hGal-1), 1810 nM.

As to `CCOC(=O)N1CCC(c2cn(C[C@H]3O[C@H](CO)[C@H](O)[C@H](n4cc(-c5cc(F)c(F)c(F)c5)nn4)[C@H]3OC)nn2)CC1` [Example 4.39, ethyl 4-(1-(((2R,3R,4S,5R,6R)-5-hydroxy-6-(hydroxymethyl)-3-methoxy-4-(4-(3,4,5-trifluorophenyl)-1H-1,2,3-triazol-1-yl)tetrahydro-2H-pyran-2-yl)methyl)-1H-1,2,3-triazol-4-yl)piperidine-1-carboxylate], the results for the concentration for half-maximal inhibition (IC50) at human Gal-3 (hGal-3) and on human Gal-1 (hGal-1) were 44 nM and 520 nM, respectively.

On to `CO[C@@H]1[C@@H](n2cc(-c3cc(F)c(F)c(F)c3)nn2)[C@@H](O)[C@@H](CO)O[C@@H]1Cn1cc(C2CCOCC2)nn1` [Example 4.40, (2R,3R,4S,5R,6R)-2-(hydroxymethyl)-5-methoxy-6-((4-(tetrahydro-2H-pyran-4-yl)-1H-1,2,3-triazol-1-yl)methyl)-4-(4-(3,4,5-trifluorophenyl)-1H-1,2,3-triazol-1-yl)tetrahydro-2H-pyran-3-ol], for which the IC50 amounted to 160 nM on human Gal-3 (hGal-3) and 3920 nM on human Gal-1 (hGal-1).

Regarding `CO[C@@H]1[C@@H](n2cc(-c3cc(F)c(F)c(F)c3)nn2)[C@@H](O)[C@@H](CO)O[C@@H]1Cn1cc(C2(O)CCCC2)nn1` [Example 4.41, (2R,3R,4S,5R,6R)-6-((4-(1-hydroxycyclopentyl)-1H-1,2,3-triazol-1-yl)methyl)-2-(hydroxymethyl)-5-methoxy-4-(4-(3,4,5-trifluorophenyl)-1H-1,2,3-triazol-1-yl)tetrahydro-2H-pyran-3-ol], the IC50 at human Gal-3 (hGal-3) is 340 nM; at human Gal-1 (hGal-1), 2490 nM.

Regarding `CO[C@@H]1[C@@H](n2cc(-c3cc(F)c(F)c(F)c3)nn2)[C@@H](O)[C@@H](CO)O[C@@H]1Cn1cc(C2=CCCC2)nn1` [Example 4.42, (2R,3R,4S,5R,6R)-6-((4-(cyclopent-1-en-1-yl)-1H-1,2,3-triazol-1-yl)methyl)-2-(hydroxymethyl)-5-methoxy-4-(4-(3,4,5-trifluorophenyl)-1H-1,2,3-triazol-1-yl)tetrahydro-2H-pyran-3-ol], the half-maximal inhibitory concentration (IC50) on human Gal-3 (hGal-3) was found to be 790 nM; at human Gal-1 (hGal-1), 2620 nM.

With `CO[C@@H]1[C@@H](n2cc(-c3cc(F)c(F)c(F)c3)nn2)[C@@H](O)[C@@H](CO)O[C@@H]1Cn1cc(C2(O)CCC2)nn1` [Example 4.43, (2R,3R,4S,5R,6R)-6-((4-(1-hydroxycyclobutyl)-1H-1,2,3-triazol-1-yl)methyl)-2-(hydroxymethyl)-5-methoxy-4-(4-(3,4,5-trifluorophenyl)-1H-1,2,3-triazol-1-yl)tetrahydro-2H-pyran-3-ol], the IC50 at human Gal-3 (hGal-3) turned out to be 300 nM; on human Gal-1 (hGal-1), 4430 nM.

With `CO[C@@H]1[C@@H](n2cc(-c3cc(F)c(F)c(F)c3)nn2)[C@@H](O)[C@@H](CO)O[C@@H]1Cn1cc(C(C)(C)O)nn1` [Example 4.44, (2R,3R,4S,5R,6R)-2-(hydroxymethyl)-6-((4-(2-hydroxypropan-2-yl)-1H-1,2,3-triazol-1-yl)methyl)-5-methoxy-4-(4-(3,4,5-trifluorophenyl)-1H-1,2,3-triazol-1-yl)tetrahydro-2H-pyran-3-ol], the IC50 on human Gal-3 (hGal-3) was 240 nM; on human Gal-1 (hGal-1) it was 15000 nM.
